# Measured values from patent US12077483B2, “Modified amine lipids” (Intellia Therapeutics, Inc., priority 2018, dated 2024).
# Legend:
# rat TTR [1] = experiment: In vivo editing in rat liver, LNP with Cas9 mRNA and sgRNA G534, NGS; settings: Table 11, Sprague Dawley female rats i.v., liver 6-7 days post dose
# Protocol: (§1) In brief, to quantitatively determine the efficiency of editing at the target location in the genome, genomic DNA was isolated and deep sequencing was utilized to identify the presence of insertions and deletions introduced by gene editing.
# (§2) PCR primers were designed around the target site (e.g., B2M), and the genomic area of interest was amplified. Additional PCR was performed according to the manufacturer's protocols (Illumina) to add the necessary chemistry for sequencing. The amplicons were sequenced on an Illumina MiSeq instrument. The reads were aligned to the relevant reference genome (e.g., GRCm38) after eliminating those having low quality scores. The resulting files containing the reads were mapped to the reference genome (BAM files), where reads that overlapped the target region of interest were selected and the number of wild type reads versus the number of reads which contain an insertion, substitution, or deletion was calculated.
# (§3) The editing percentage (e.g., the “editing efficiency” or “percent editing”) is defined as the total number of sequence reads with insertions or deletions over the total number of sequence reads, including wild type.
# To assess lipid efficacy, dose response experiments were performed in vivo. Cas9 mRNA of Example 115 was formulated as LNPs with a gRNA targeting TTR (G00534; SEQ ID NO: 5). These LNPs were formulated, prepared and analyzed as described in Example 115 using a 1:2 w/w ratio of a sgRNA and Cas9 mRNA. Composition analysis for these LNPs are described in Table 10.
# For efficacy, Sprague Dawley female rats were dosed i.v. at 0.1 mpk or 0.03 mpk. 6-7 days post dose, rats were euthanized by CO2 asphyxiation. Blood was collected into serum separator tubes. Liver biopsy processed for gDNA and assessed for editing by NGS methods described in Example 115. Results are shown in Table 11 and FIGS. 12A and 12B. For tolerability, Sprague Dawley female rats were dosed at 6 mpk and 24 hours post dose the animals were euthanized by CO2 asphyxiation. Blood was collected into serum separator tubes and sent to an external CRO for quantitation of liver enzymes via a liver enzyme panel.
# TTR in HUH7 cells = experiment: In vitro editing in HUH7 cells, LNP with Cas9 mRNA and sgRNA G000502, NGS; assay type: cell-based, human; settings: Table 14; 2000 ng RNA per well, cells harvested 6 hours post-transfection, biological duplicate, G000502 target locus
# Protocol: A series of compounds based on Compound 46 that vary by the inclusion of a C4-12 alkyl at the R^3 position of Formula (IA) (as illustrated in FIG. 13A) were tested for in vitro editing. The human hepatocellular carcinoma cell line […] (Japanese Collection of Research Bioresources Cell Bank, Cat. JCRB0403) was cultured in DMEM media supplemented with 10% fetal bovine serum and 1% Penicillin-Streptomycin. Cells were plated at a density of 20,000 cells/well in a 96-well plate 24 hours prior to transfection (˜80% confluent at time of transfection). The LNPs were formulated at a 1:2 w/w ratio of sgRNA and Cas9 mRNA using the cross flow procedure with lipid molar compositions as described in Table 13 at an N/P ratio of 6.0. LNP compositions were analyzed for average particle size, polydispersity (pdi), total RNA content and encapsulation efficiency of RNA as described in Example 115. Analysis of average particle size, polydispersity (PDI), total RNA content and encapsulation efficiency of RNA are shown in Table 13. LNPs were diluted into media, incubated for 5 minutes at 37 C and pipetted onto cells at a dose of 2000 ng RNA per well. Each condition was assayed in biological duplicate. Cells were harvested post-transfection at 6 hours. Genomic DNA was extracted using 50 μL/well BuccalAmp DNA Extraction solution (Epicentre, Cat. QE09050) according to manufacturer's protocol. All DNA samples were subjected to PCR and subsequent NGS analysis for editing at the G000502 target locus, as described above. As shown in Table 14 and FIG. 13B, all compounds tested were efficacious for in vitro editing.
# rat TTR [2] = experiment: Serum TTR levels in rats after LNP delivery; assay type: in vivo; settings: Table 11, G534, Sprague Dawley female rats i.v.
# mouse TTR gene = experiment: In vivo editing in mouse liver, LNP with Cas9 mRNA and sgRNA G282, NGS; settings: G00282, CD-1 female mice i.v., liver; for Editing Mean % Indel: Table 7; for Mean % Indel: Table 5
# Protocol: LNPs were prepared using various amine lipids in a 4-component lipid system consisting of an ionizable lipid (e.g. an amine lipid), DSPC, cholesterol and PEG-2k-DMG. In assays for percent liver editing in mice, Cas9 mRNA and chemically modified sgRNA targeting a mouse sequence were formulated in LNPs, at either a 1:1 w/w ratio or a 1:2 w/w ratio.
# The lipid components were dissolved in 100% ethanol with the lipid component molar ratios described below. The chemically modified sgRNA and Cas9 mRNA were combined and dissolved in 25 mM citrate, 100 mM NaCl, pH 5.0, resulting in a concentration of total RNA cargo of approximately 0.45 mg/mL. The LNPs were formulated with an N/P ratio of about 6, with the ratio of chemically modified sgRNA: Cas9 mRNA at either a 1:1 or 1:2 w/w ratio as described below.
# CD-1 female mice, ranging from 6-10 weeks of age were used in each study. Animals were weighed and grouped according to body weight for preparing dosing solutions based on group average weight. LNPs were dosed via the lateral tail vein in a volume of 0.2 mL per animal (approximately 10 mL per kilogram body weight). The animals were periodically observed for adverse effects for at least 24 hours post dose.
# For studies measuring in vivo editing in liver, CD-1 female mice were dosed at 0.1 mpk unless otherwise noted. Animals were euthanized at 6 or 7 days by exsanguinationvia cardiac puncture under isoflourane anesthesia. Liver tissue was collected from each animal for DNA extraction and analysis. Blood was collected into serum separator tubes or into tubes containing buffered sodium citrate for plasma as described herein. Cohorts of mice were measured for editing by Next-Generation Sequencing (NGS).
# as §1, §2, §3
# We assessed in vivo editing efficiency for materials delivered with formulations including various amine lipid compounds. Editing was measured using either G282 (SEQ ID No: 1) which targets the mouse TTR gene or G650 (SEQ ID No. 2) which targets the mouse B2M gene. Lipids described above were assessed for efficacy through in vivo editing experiments. LNPs were formulated at a 1:1 w/w ratio of sgRNA to Cas9 mRNA, and at an N/P ratio of about 6. Molar concentrations of lipids in the lipid component of the LNPs are expressed as mol % amine lipid/DSPC/cholesterol/PEG-2k-DMG, e.g. 50/10/38.5/1.5. The final LNPs were characterized to determine the encapsulation efficiency, polydispersity index, and average particle size according to the analytical methods provided above. Analysis of average particle size, polydispersity (PDI), total RNA content and encapsulation efficiency of RNA are shown in Table 2.
# To assess whether the editing was dose responsive, experiments were performed in vivo at various LNP dose levels. […]
# mouse B2M gene = experiment: In vivo editing in mouse liver, LNP with Cas9 mRNA and sgRNA G650, NGS; settings: Table 3; guide G650; CD-1 female mice, 0.1 mpk i.v., liver at 6 or 7 days; Exp. 2-7
# Outline: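 Female CD-1 mice given LNPs (amine lipid/DSPC/cholesterol/PEG-2k-DMG; N/P ~6; sgRNA G650:Cas9 mRNA 1:1 w/w) i.v. at 0.1 mpk unless noted. Liver collected day 6 or 7; B2M editing = indel reads over total reads by amplicon NGS.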
SMILES,Editing % Editing (rat TTR [1]; dose 0.03 mpk) [%],Editing % Editing (rat TTR [1]; dose 0.1 mpk) [%],Editing (TTR in HUH7 cells) [%],Serum TTR (rat TTR [2]; dose 0.03 mpk) [µg/mL],Serum TTR % TSS (rat TTR [2]; dose 0.03 mpk) [% TSS],Serum TTR (rat TTR [2]; dose 0.1 mpk) [µg/mL],Serum TTR % TSS (rat TTR [2]; dose 0.1 mpk) [% TSS],Editing Mean % Indel (mouse TTR gene; dose 0.1 mpk) [%],Editing Mean % Indel (mouse TTR gene; dose 0.3 mpk) [%],Editing Mean % Indel (mouse B2M gene) [%],Mean % Indel (mouse TTR gene; dose 0.1 mpk) [%],Mean % Indel (mouse TTR gene; dose 0.3 mpk) [%]
"CCCCC/C=C\C/C=C\CCCCCCCC(=O)OCC(COC(=O)CCCCCCC/C=C\C/C=C\CCCCC)OC(=O)CCC(CCCCCC)OC(=O)NCCN1CCCC1 (racemic) [Compound 50, 2-((4-(((2-(pyrrolidin-1-yl)ethyl)carbamoyl)oxy)decanoyl)oxy)propane-1,3-diyl (9Z,9′Z,12Z,12′Z)-bis(octadeca-9,12-dienoate)]",26.9,62.6,64.3,581.7,69,116.6,14,–,–,–,–,–
"CCCCC/C=C\C/C=C\CCCCCCCC(=O)OCC(COC(=O)CCCCCCC/C=C\C/C=C\CCCCC)OC(=O)CCC(CCCCCCCC)OC(=O)NCCN(C)CC (stereo not shown) [Compound 34, 2-((4-(((2-(ethyl(methyl)amino)ethyl)carbamoyl)oxy)dodecanoyl)oxy)propane-1,3-diyl (9Z,9′Z,12Z,12′Z)-bis(octadeca-9,12-dienoate)]",21.22,53.9,49.0,514.2,61,188.9,22,54.9,68.3,44.8,–,–
"CCCCC/C=C\C/C=C\CCCCCCCC(=O)OCC(COC(=O)CCC(OCCCCCCCC)OCCCCCCCC)COC(=O)OCCCN(CC)CC (stereo not shown) [Compound 49, 3-((4,4-bis(octyloxy)butanoyl)oxy)-2-((((3-(diethylamino)propoxy)carbonyl)oxy)methyl)propyl (9Z,12Z)-octadeca-9,12-dienoate, reference compound]",4.76,25.62,22.6,790.9,94,669.5,79,50.0,67.7,–,26.8,60.6
